Reference: ChEMBL document CHEMBL4002605, “Synthesis, identification and in vitro biological evaluation of some novel quinoline incorporated 1,3-thiazinan-4-one derivatives” (Bioorg Med Chem Lett, 2017)
In brackets after ≈: the same amount, converted by molar mass.

What was measured:
Plasmodium falciparum = test: Antimalarial activity against Plasmodium falciparum; format: functional
Streptococcus pneumoniae = test: Antibacterial activity against Streptococcus pneumoniae MTCC 1936 by broth microdilution assay method; format: functional
Bacillus subtilis = test: Antibacterial activity against Bacillus subtilis MTCC 441 by broth microdilution assay method; format: functional
Clostridium tetani = test: Antibacterial activity against Clostridium tetani MTCC 449 by broth microdilution assay method; format: functional
Escherichia coli = test: Antibacterial activity against Escherichia coli MTCC 443 by broth microdilution assay method; format: functional
Salmonella typhi = test: Antibacterial activity against Salmonella typhi MTCC 98 by broth microdilution assay method; format: functional, Salmonella enterica subsp. enterica serovar Typhi; conditions: Salmonella enterica
Vibrio cholerae = test: Antibacterial activity against Vibrio cholerae MTCC 3906 by broth microdilution assay method; format: functional
[1] = system: Mycobacterium tuberculosis; test: Antitubercular activity against Mycobacterium tuberculosis H37Rv at 6 ug/mL; format: functional

With `C=C[C@H]1CN2CC[C@H]1C[C@H]2[C@H](O)c1ccnc2ccc(OC)cc12` [QUININE] the IC50 (Plasmodium falciparum) was 0.271 µg/mL (≈ 0.835 µM).
`O=C(NN1C(=O)CCSC1c1cccc(Cl)c1)c1cnc2c(C(F)(F)F)cccc2c1O` (stereo not given) showed an MIC (Streptococcus pneumoniae) of 250 µg/mL (≈ 519 µM), an MIC (Bacillus subtilis) of 125 µg/mL (≈ 259 µM) and an MIC (Clostridium tetani) of 250 µg/mL (≈ 519 µM). For the same compound, the MIC (Escherichia coli) was 125 µg/mL (≈ 259 µM), the MIC (Salmonella typhi) was 250 µg/mL (≈ 519 µM) and the MIC (Vibrio cholerae) was 250 µg/mL (≈ 519 µM). The inhibition at 6 µg/mL [1] was 71% and the IC50 (Plasmodium falciparum) was 1.2 µg/mL (≈ 2.49 µM).
In the case of `COc1ccc(C2SCCC(=O)N2NC(=O)c2cnc3c(C(F)(F)F)cccc3c2O)cc1` (stereo not given), the MIC (Streptococcus pneumoniae) is reported as 250 µg/mL (≈ 524 µM), the MIC (Bacillus subtilis) is reported as 125 µg/mL (≈ 262 µM) and the MIC (Clostridium tetani) is reported as 250 µg/mL (≈ 524 µM). For the same compound, the MIC (Escherichia coli) was 250 µg/mL (≈ 524 µM), the MIC (Salmonella typhi) was 125 µg/mL (≈ 262 µM) and the MIC (Vibrio cholerae) was 250 µg/mL (≈ 524 µM). It also gave an inhibition at 6 µg/mL [1] of 70% and an IC50 (Plasmodium falciparum) of 1.45 µg/mL (≈ 3.04 µM).
In the case of `O=C1CCSC(c2ccc(Br)cc2)N1CCCCNc1ccnc2cc(Cl)ccc12` (stereo not given), the MIC (Streptococcus pneumoniae) is reported as 100 µg/mL (≈ 198 µM), the MIC (Bacillus subtilis) is reported as 100 µg/mL (≈ 198 µM) and the MIC (Clostridium tetani) is reported as 250 µg/mL (≈ 495 µM). The MIC (Escherichia coli) was 62.5 µg/mL (≈ 124 µM), the MIC (Salmonella typhi) was 62.5 µg/mL (≈ 124 µM) and the MIC (Vibrio cholerae) was 125 µg/mL (≈ 248 µM). The inhibition at 6 µg/mL [1] was 82% and the IC50 (Plasmodium falciparum) was 0.064 µg/mL (≈ 0.127 µM).
`O=C1CCSC(c2ccc(Cl)cc2)N1CCNc1ccnc2cc(Cl)ccc12` (stereo not given) showed an MIC (Streptococcus pneumoniae) of 125 µg/mL (≈ 289 µM), an MIC (Bacillus subtilis) of 62.5 µg/mL (≈ 145 µM) and an MIC (Clostridium tetani) of 62.5 µg/mL (≈ 145 µM). The MIC (Escherichia coli) was 125 µg/mL (≈ 289 µM), the MIC (Salmonella typhi) was 250 µg/mL (≈ 578 µM) and the MIC (Vibrio cholerae) was 125 µg/mL (≈ 289 µM). It also gave an inhibition at 6 µg/mL [1] of 73% and an IC50 (Plasmodium falciparum) of 0.098 µg/mL (≈ 0.227 µM).
Work on `O=C1CCSC(c2ccc(O)cc2)N1CCCCNc1ccnc2cc(Cl)ccc12` (stereo not given) yielded an MIC (Streptococcus pneumoniae) of 250 µg/mL (≈ 566 µM), an MIC (Bacillus subtilis) of 250 µg/mL (≈ 566 µM) and an MIC (Clostridium tetani) of 500 µg/mL (≈ 1130 µM). It also gave an MIC (Escherichia coli) of 125 µg/mL (≈ 283 µM), an MIC (Salmonella typhi) of 250 µg/mL (≈ 566 µM) and an MIC (Vibrio cholerae) of 250 µg/mL (≈ 566 µM). It also gave an inhibition at 6 µg/mL [1] of 38% and an IC50 (Plasmodium falciparum) of 2.64 µg/mL (≈ 5.97 µM).
Compound `O=C1CCSC(c2ccc(Cl)cc2)N1CCCCNc1ccnc2cc(Cl)ccc12` (stereo not given) has an MIC (Streptococcus pneumoniae) of 250 µg/mL (≈ 543 µM), an MIC (Bacillus subtilis) of 250 µg/mL (≈ 543 µM) and an MIC (Clostridium tetani) of 125 µg/mL (≈ 271 µM). The MIC (Escherichia coli) was 250 µg/mL (≈ 543 µM), the MIC (Salmonella typhi) was 125 µg/mL (≈ 271 µM) and the MIC (Vibrio cholerae) was 62.5 µg/mL (≈ 136 µM). The inhibition at 6 µg/mL [1] was 60% and the IC50 (Plasmodium falciparum) was 0.14 µg/mL (≈ 0.304 µM).
Work on `Cc1ccc(C2SCCC(=O)N2CCNc2ccnc3cc(Cl)ccc23)cc1` (stereo not given) yielded an MIC (Streptococcus pneumoniae) of 500 µg/mL (≈ 1210 µM), an MIC (Bacillus subtilis) of 250 µg/mL (≈ 607 µM) and an MIC (Clostridium tetani) of 250 µg/mL (≈ 607 µM). For the same compound, the MIC (Escherichia coli) was 250 µg/mL (≈ 607 µM), the MIC (Salmonella typhi) was 500 µg/mL (≈ 1210 µM) and the MIC (Vibrio cholerae) was 250 µg/mL (≈ 607 µM). The inhibition at 6 µg/mL [1] was 57% and the IC50 (Plasmodium falciparum) was 1.97 µg/mL (≈ 4.78 µM).
In the case of `COc1cccc(C2SCCC(=O)N2CCNc2ccnc3cc(Cl)ccc23)c1` (stereo not given), the MIC (Streptococcus pneumoniae) is reported as 250 µg/mL (≈ 584 µM), the MIC (Bacillus subtilis) is reported as 62.5 µg/mL (≈ 146 µM) and the MIC (Clostridium tetani) is reported as 250 µg/mL (≈ 584 µM). For the same compound, the MIC (Escherichia coli) was 250 µg/mL (≈ 584 µM), the MIC (Salmonella typhi) was 500 µg/mL (≈ 1170 µM) and the MIC (Vibrio cholerae) was 500 µg/mL (≈ 1170 µM). The inhibition at 6 µg/mL [1] was 58% and the IC50 (Plasmodium falciparum) was 1.89 µg/mL (≈ 4.42 µM).
Work on `O=C(NN1C(=O)CCSC1c1ccc(Br)cc1)c1cnc2c(C(F)(F)F)cccc2c1O` (stereo not given) yielded an MIC (Streptococcus pneumoniae) of 125 µg/mL (≈ 237 µM), an MIC (Bacillus subtilis) of 62.5 µg/mL (≈ 119 µM) and an MIC (Clostridium tetani) of 31.2 µg/mL (≈ 59.4 µM). It also gave an MIC (Escherichia coli) of 125 µg/mL (≈ 237 µM), an MIC (Salmonella typhi) of 31.2 µg/mL (≈ 59.4 µM) and an MIC (Vibrio cholerae) of 62.5 µg/mL (≈ 119 µM). It also gave an inhibition at 6 µg/mL [1] of 98% and an IC50 (Plasmodium falciparum) of 0.018 µg/mL (≈ 0.0342 µM).
With `O=C1CCSC(c2cccc(F)c2)N1CCCNc1ccnc2cc(Cl)ccc12` (stereo not given) the MIC (Streptococcus pneumoniae) was 125 µg/mL (≈ 291 µM), the MIC (Bacillus subtilis) was 125 µg/mL (≈ 291 µM) and the MIC (Clostridium tetani) was 250 µg/mL (≈ 581 µM). The MIC (Escherichia coli) was 250 µg/mL (≈ 581 µM), the MIC (Salmonella typhi) was 125 µg/mL (≈ 291 µM) and the MIC (Vibrio cholerae) was 250 µg/mL (≈ 581 µM). The inhibition at 6 µg/mL [1] was 52% and the IC50 (Plasmodium falciparum) was 1.12 µg/mL (≈ 2.6 µM).
`O=C1CCSC(c2cccc(F)c2)N1CCNc1ccnc2cc(Cl)ccc12` (stereo not given) was tested, and the MIC (Streptococcus pneumoniae) was 125 µg/mL (≈ 301 µM), the MIC (Bacillus subtilis) was 250 µg/mL (≈ 601 µM) and the MIC (Clostridium tetani) was 250 µg/mL (≈ 601 µM). The MIC (Escherichia coli) was 62.5 µg/mL (≈ 150 µM), the MIC (Salmonella typhi) was 250 µg/mL (≈ 601 µM) and the MIC (Vibrio cholerae) was 250 µg/mL (≈ 601 µM). For the same compound, the inhibition at 6 µg/mL [1] was 66% and the IC50 (Plasmodium falciparum) was 1.05 µg/mL (≈ 2.52 µM).
`O=C1CCSC(c2ccc(F)cc2)N1CCCNc1ccnc2cc(Cl)ccc12` (stereo not given) gave an MIC (Streptococcus pneumoniae) of 31.2 µg/mL (≈ 72.7 µM), an MIC (Bacillus subtilis) of 62.5 µg/mL (≈ 145 µM) and an MIC (Clostridium tetani) of 100 µg/mL (≈ 233 µM). The MIC (Escherichia coli) was 62.5 µg/mL (≈ 145 µM), the MIC (Salmonella typhi) was 125 µg/mL (≈ 291 µM) and the MIC (Vibrio cholerae) was 100 µg/mL (≈ 233 µM). It also gave an inhibition at 6 µg/mL [1] of 78% and an IC50 (Plasmodium falciparum) of 0.089 µg/mL (≈ 0.207 µM).
`O=C1CCSC(c2ccccc2)N1CCNc1ccnc2cc(Cl)ccc12` (stereo not given) gave an MIC (Streptococcus pneumoniae) of 500 µg/mL (≈ 1260 µM), an MIC (Bacillus subtilis) of 250 µg/mL (≈ 628 µM) and an MIC (Clostridium tetani) of 250 µg/mL (≈ 628 µM). It also gave an MIC (Escherichia coli) of 500 µg/mL (≈ 1260 µM), an MIC (Salmonella typhi) of 500 µg/mL (≈ 1260 µM) and an MIC (Vibrio cholerae) of 250 µg/mL (≈ 628 µM). For the same compound, the inhibition at 6 µg/mL [1] was 50% and the IC50 (Plasmodium falciparum) was 2.7 µg/mL (≈ 6.79 µM).
With `O=C1CCSC(c2ccc(F)cc2)N1CCCCNc1ccnc2cc(Cl)ccc12` (stereo not given) the MIC (Streptococcus pneumoniae) was 100 µg/mL (≈ 225 µM), the MIC (Bacillus subtilis) was 100 µg/mL (≈ 225 µM) and the MIC (Clostridium tetani) was 125 µg/mL (≈ 282 µM). For the same compound, the MIC (Escherichia coli) was 125 µg/mL (≈ 282 µM), the MIC (Salmonella typhi) was 62.5 µg/mL (≈ 141 µM) and the MIC (Vibrio cholerae) was 62.5 µg/mL (≈ 141 µM). The inhibition at 6 µg/mL [1] was 65% and the IC50 (Plasmodium falciparum) was 0.092 µg/mL (≈ 0.207 µM).
Compound `CCn1cc(C(=O)O)c(=O)c2cc(F)c(N3CCNCC3)cc21` [NORFLOXACIN] has an MIC (Streptococcus pneumoniae) of 10 µg/mL (≈ 31.3 µM), an MIC (Bacillus subtilis) of 100 µg/mL (≈ 313 µM) and an MIC (Clostridium tetani) of 50 µg/mL (≈ 157 µM). It also gave an MIC (Escherichia coli) of 10 µg/mL (≈ 31.3 µM), an MIC (Salmonella typhi) of 10 µg/mL (≈ 31.3 µM) and an MIC (Vibrio cholerae) of 10 µg/mL (≈ 31.3 µM).
`Cc1ccc(C2SCCC(=O)N2NC(=O)c2cnc3c(C(F)(F)F)cccc3c2O)cc1` (stereo not given) was tested, and the MIC (Streptococcus pneumoniae) was 500 µg/mL (≈ 1080 µM), the MIC (Bacillus subtilis) was 250 µg/mL (≈ 542 µM) and the MIC (Clostridium tetani) was 250 µg/mL (≈ 542 µM). The MIC (Escherichia coli) was 500 µg/mL (≈ 1080 µM), the MIC (Salmonella typhi) was 250 µg/mL (≈ 542 µM) and the MIC (Vibrio cholerae) was 500 µg/mL (≈ 1080 µM). The inhibition at 6 µg/mL [1] was 60% and the IC50 (Plasmodium falciparum) was 1.56 µg/mL (≈ 3.38 µM).
`COc1ccc(C2SCCC(=O)N2CCCNc2ccnc3cc(Cl)ccc23)cc1` (stereo not given) was tested, and the MIC (Streptococcus pneumoniae) was 125 µg/mL (≈ 283 µM), the MIC (Bacillus subtilis) was 125 µg/mL (≈ 283 µM) and the MIC (Clostridium tetani) was 250 µg/mL (≈ 566 µM). It also gave an MIC (Escherichia coli) of 250 µg/mL (≈ 566 µM), an MIC (Salmonella typhi) of 500 µg/mL (≈ 1130 µM) and an MIC (Vibrio cholerae) of 250 µg/mL (≈ 566 µM). For the same compound, the inhibition at 6 µg/mL [1] was 57% and the IC50 (Plasmodium falciparum) was 0.52 µg/mL (≈ 1.18 µM).
